Laboratory results published in PubChem BioAssay (NCI).
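Protocol summary: plate cells (96-well), add compound at 5 concentrations, incubate 48 h, interpolate endpoints linearly. GI50 is the concentration that inhibits growth by half. Definition used: TGI = concentration required for complete inhibition of growth.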

What was measured:
Test in all cases: inhibition of tumour cell growth, NCI panel, 48 h
SN12C renal = test system: SN12C renal
HT29 colon = test system: HT29 colon
SW-620 colon = test system: SW-620 colon
SNB-78 CNS = test system: SNB-78 CNS
SF-295 CNS = test system: SF-295 CNS
SK-MEL-2 melanoma = test system: SK-MEL-2 melanoma
A498 renal = test system: A498 renal
KM20L2 colon = test system: KM20L2 colon
HCT-15 colon = test system: HCT-15 colon
NCI-H226 lung = test system: NCI-H226 lung

Row | SMILES | TGI (SN12C renal) | TGI (HT29 colon) | TGI (SW-620 colon) | TGI (SNB-78 CNS) | TGI (SF-295 CNS) | TGI (SK-MEL-2 melanoma) | TGI (A498 renal) | TGI (KM20L2 colon) | TGI (HCT-15 colon) | TGI (NCI-H226 lung) | GI50 (SN12C renal) | GI50 (HT29 colon) | GI50 (SW-620 colon) | GI50 (SNB-78 CNS) | GI50 (SF-295 CNS) | GI50 (SK-MEL-2 melanoma) | GI50 (A498 renal) | GI50 (KM20L2 colon) | GI50 (HCT-15 colon) | GI50 (NCI-H226 lung)
1 | CN(C)C(N)=NC#N | > 100 µM | > 100 µM | 38.2 µM | > 100 µM | > 100 µM | > 100 µM | > 100 µM | > 100 µM | 34.8 µM | > 100 µM | – | – | – | – | – | – | – | – | – | –
2 | C(CCC[Te][Te]CCCCCCOC1CCCCO1)CCOC1CCCCO1 (stereo not given) | 29.4 µM | 25.6 µM | 45.2 µM | 38.1 µM | 32.1 µM | 28.3 µM | 37.8 µM | 28.7 µM | 60.6 µM | – | – | – | – | – | – | – | – | – | – | –
3 | CC1(C)OC(=O)C=C([O-])O1.CC1(C)OC(=O)C=C([O-])O1.O=S(=O)([O-])c1ccc([O-])c2ncccc12.O=S(=O)([O-])c1ccc([O-])c2ncccc12.[Ti+4] | > 100 µM | > 100 µM | > 100 µM | > 100 µM | > 100 µM | > 100 µM | > 100 µM | > 100 µM | > 100 µM | > 100 µM | > 100 µM | > 100 µM | > 100 µM | > 100 µM | > 100 µM | > 100 µM | > 100 µM | 43.3 µM | 99.7 µM | > 100 µM
4 | O=C1C=C(Br)C(=O)C12CCc1ccccc12 (stereo not given) | 35 µM | 45 µM | 16.2 µM | 59.4 µM | 36.6 µM | 54.2 µM | 24.1 µM | 64.5 µM | 19.7 µM | 35.8 µM | – | – | – | – | – | – | – | – | – | –
5 | COC(=O)c1sc(C(=O)OC)c2c1CSC2 | > 100 µM | > 100 µM | > 100 µM | > 100 µM | > 100 µM | > 100 µM | > 100 µM | > 100 µM | > 100 µM | > 100 µM | – | – | – | – | – | – | – | – | – | –
6 | CCNC(=O)C#CC(=O)NCC | > 100 µM | > 100 µM | > 87.7 µM | > 100 µM | > 100 µM | > 100 µM | > 100 µM | > 100 µM | > 61.4 µM | > 100 µM | > 10 µM | > 10 µM | > 10 µM | > 100 µM | > 10 µM | > 10 µM | > 100 µM | > 10 µM | > 10 µM | > 100 µM
7 | CCCCCCCC(=O)OC(CBr)COC(=O)C(C)(C)C (stereo not given) | > 100 µM | > 100 µM | > 100 µM | > 100 µM | > 100 µM | > 100 µM | > 100 µM | > 100 µM | > 100 µM | > 100 µM | – | – | – | – | – | – | – | – | – | –
8 | O=c1cc2ccccc2nn1Cc1ccccc1Cl | > 100 µM | > 100 µM | > 100 µM | > 100 µM | > 100 µM | > 100 µM | > 100 µM | > 100 µM | > 100 µM | > 100 µM | – | – | – | – | – | – | – | – | – | –
9 | O=C(O)/C(=C/c1c(O)ccc2ccccc12)c1csc(-c2nc(/C(=C\c3c(O)ccc4ccccc34)C(=O)O)cs2)n1 | – | 52.2 µM | 59 µM | 34.7 µM | 28.5 µM | 10.2 µM | 41.7 µM | 50.6 µM | 39 µM | 7.39 µM | – | – | – | – | – | – | – | – | – | –
10 | COc1ccc2c(c1OC)C1=C(C2=O)c2cc3c(cc2CCN1)OCO3 | > 100 µM | 43.3 µM | 47.5 µM | > 100 µM | > 100 µM | 66.3 µM | > 100 µM | 41 µM | > 100 µM | 9.58 µM | – | – | – | – | – | – | – | – | – | –
11 | COc1cc2noc(-c3ccccc3)c2cc1OC | > 100 µM | > 100 µM | > 100 µM | > 100 µM | 38.6 µM | > 100 µM | 83.1 µM | > 100 µM | > 100 µM | > 100 µM | – | – | – | – | – | – | – | – | – | –
12 | Cn1c(=O)nc2n(-c3cccc(F)c3)c3ccccc3nc-2c1=O | 73.9 µM | 32.5 µM | 26.4 µM | 68.4 µM | > 100 µM | 52.6 µM | > 100 µM | 45.4 µM | 52.3 µM | > 100 µM | – | – | – | – | – | – | – | – | – | –
13 | CN1c2ccccc2N(C)C2C1N(C)c1ccccc1N2C (stereo not given) | > 100 µM | > 100 µM | > 100 µM | > 100 µM | > 100 µM | 69.6 µM | 84.1 µM | > 100 µM | – | 83.2 µM | – | – | – | – | – | – | – | – | – | –
14 | O=C1C[C@@H]2C(COC(=O)c3ccccc3)N(OCc3ccccc3)C[C@@H]2O1 (stereo not given in full) | > 100 µM | > 100 µM | > 100 µM | > 100 µM | – | > 100 µM | > 100 µM | > 100 µM | > 100 µM | > 100 µM | – | – | – | – | – | – | – | – | – | –
15 | Cc1c(C(=O)c2ccccc2C(=O)O)c2ccccc2n1C | – | > 100 µM | > 100 µM | > 100 µM | > 100 µM | > 100 µM | > 100 µM | > 100 µM | > 100 µM | > 100 µM | – | – | – | – | – | – | – | – | – | –
